Data published in publication PMC4802617 (Chinese Medicine, 2016).
Several values for one entry are separate records, joined by “and”; a condition that tells them apart may be missing. Equal entries are not always repeated. Entries after “also recorded” stand apart in the source; their conditions may differ. Structures can show the parent of a compound that is named as a salt. Where two headings read alike, the source gives them in different places.

Assays:
[1] = target: T1, CYP2E1 (Homo sapiens, UniProt P05181); settings: CYP2E1 ref 28; read-out: Ki, specific inhibitor/reported values; cited from earlier work
T1 construct: tissue Cypex Ltd. (UK); host or cells: pooled human liver microsomes, ten donors
T1 sequence (P05181 whole entry): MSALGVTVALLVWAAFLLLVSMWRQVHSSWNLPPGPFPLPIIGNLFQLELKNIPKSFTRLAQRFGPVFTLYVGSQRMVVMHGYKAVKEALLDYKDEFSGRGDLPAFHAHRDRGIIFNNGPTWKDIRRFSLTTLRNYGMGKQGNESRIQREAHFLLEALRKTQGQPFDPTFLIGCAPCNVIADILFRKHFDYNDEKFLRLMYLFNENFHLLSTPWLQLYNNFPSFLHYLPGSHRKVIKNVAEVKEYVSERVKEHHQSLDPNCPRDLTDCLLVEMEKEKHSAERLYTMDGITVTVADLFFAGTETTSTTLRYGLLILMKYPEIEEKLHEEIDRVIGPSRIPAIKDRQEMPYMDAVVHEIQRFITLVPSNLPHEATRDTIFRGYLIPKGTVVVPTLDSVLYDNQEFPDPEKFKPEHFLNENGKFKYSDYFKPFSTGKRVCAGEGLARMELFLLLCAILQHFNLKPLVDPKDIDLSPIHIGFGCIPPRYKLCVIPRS

[2] = Kinetic analysis of STS metabolism by human liver microsomes; type: in vitro ADME
Experimental: (§1) The CYP isoform-specific probe reactions used were phenacetin O-deethylation (for CYP1A2), coumarin 7-hydroxylation (for CYP2A6), tolbutamide 4-hydroxylation (for CYP2C9), metoprolol α-hydroxylation (for CYP2D6), chlorzoxazone 6-hydroxylation (for CYP2E1), S-mephenytoin 4-hydroxylation (for CYP2C19), and midazolam 1-hydroxylation (for CYP3A4). […] Each reaction was initiated by addition of 1 mg/mL NADPH. The final incubations were performed in a shaking water bath at 37 °C for 30 min. The incubations were performed in triple, and the incubation conditions specific to each CYP isoform were within the linear range for the velocity of the reaction (incubation time as well as substrate and protein concentrations). […] The reactions were stopped by adding 0.2 mL of ice-cold acetonitrile containing irbesartan (114.9 ng/mL) as the internal standard. The samples were vortexed for 5 min. After centrifugation (5415D centrifuge, Eppendorf, Germany) (12,000×g for 10 min), the supernatants were transferred and aliquots of 20 µL were injected into the HPLC–MS/MS system for analysis.
The incubation conditions consisted of substrate probe, HLMs (0.5 mg/mL) or CYP isoforms (10 pmol), and 0.1 M sodium phosphate buffer (pH 7.4) in a total volume of 0.2 mL. […] All values were expressed as the mean ± standard deviation (SD). The mean intrinsic clearance rate (CLint) for the in vitro incubation was estimated by Vmax/Km.
(§2) Values of P < 0.05 denoted significance in all cases. […] The activity of each CYP isoform was calculated by the MCR of its corresponding probe substrate to determine the inhibition of the CYP isoforms. […] The IC50 values were determined by analyzing the plot of the logarithm of the inhibitor concentration versus the percentage of activity remaining after inhibition, using the SPSS for Windows Version 11.5 (SPSS Inc., USA). The inhibition data were fitted to different models of enzyme inhibition (competitive, noncompetitive, and uncompetitive) by nonlinear least-squares regression analysis using GraphPad Prism 5 software (GraphPad Co. Ltd., USA) to calculate the Ki values.

[3] = target: T2, CYP3A4 (Homo sapiens, UniProt P08684); experiment: Kinetic analysis of STS metabolism by recombinant CYP3A4; type: in vitro ADME
T2 sequence (P08684 whole entry, canonical isoform): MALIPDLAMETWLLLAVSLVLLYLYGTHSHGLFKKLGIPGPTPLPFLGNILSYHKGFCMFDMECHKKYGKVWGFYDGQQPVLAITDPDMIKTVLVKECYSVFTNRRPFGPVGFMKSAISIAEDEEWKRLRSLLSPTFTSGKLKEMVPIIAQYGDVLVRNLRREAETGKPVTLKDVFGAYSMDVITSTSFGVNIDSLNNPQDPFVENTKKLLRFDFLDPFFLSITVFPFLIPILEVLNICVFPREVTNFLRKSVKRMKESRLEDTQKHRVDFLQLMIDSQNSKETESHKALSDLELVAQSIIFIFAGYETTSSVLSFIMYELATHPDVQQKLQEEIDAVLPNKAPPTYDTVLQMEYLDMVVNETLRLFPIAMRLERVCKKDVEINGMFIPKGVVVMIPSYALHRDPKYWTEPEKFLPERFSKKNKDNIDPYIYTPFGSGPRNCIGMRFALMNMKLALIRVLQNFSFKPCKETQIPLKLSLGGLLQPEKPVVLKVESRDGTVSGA
Experimental: The CYP isoform-specific probe reactions used were phenacetin O-deethylation (for CYP1A2), coumarin 7-hydroxylation (for CYP2A6), tolbutamide 4-hydroxylation (for CYP2C9), metoprolol α-hydroxylation (for CYP2D6), chlorzoxazone 6-hydroxylation (for CYP2E1), S-mephenytoin 4-hydroxylation (for CYP2C19), and midazolam 1-hydroxylation (for CYP3A4). […] Each reaction was initiated by addition of 1 mg/mL NADPH. The final incubations were performed in a shaking water bath at 37 °C for 30 min. The incubations were performed in triple, and the incubation conditions specific to each CYP isoform were within the linear range for the velocity of the reaction (incubation time as well as substrate and protein concentrations). […]
The incubation conditions consisted of substrate probe, HLMs (0.5 mg/mL) or CYP isoforms (10 pmol), and 0.1 M sodium phosphate buffer (pH 7.4) in a total volume of 0.2 mL. […] All values were expressed as the mean ± standard deviation (SD). […]
(§3) Values of P < 0.05 denoted significance in all cases. […] The activity of each CYP isoform was calculated by the MCR of its corresponding probe substrate to determine the inhibition of the CYP isoforms. […] The IC50 values were determined by analyzing the plot of the logarithm of the inhibitor concentration versus the percentage of activity remaining after inhibition, using the SPSS for Windows Version 11.5 (SPSS Inc., USA). […]

[4] = target: T3, CYP2A6 (Homo sapiens, UniProt P11509); experiment: Inhibition of coumarin 7-hydroxylation in HLMs; type: in vitro ADME
T3 construct: tissue Cypex Ltd. (UK); host or cells: pooled human liver microsomes, ten donors
T3 sequence (P11509 1-494): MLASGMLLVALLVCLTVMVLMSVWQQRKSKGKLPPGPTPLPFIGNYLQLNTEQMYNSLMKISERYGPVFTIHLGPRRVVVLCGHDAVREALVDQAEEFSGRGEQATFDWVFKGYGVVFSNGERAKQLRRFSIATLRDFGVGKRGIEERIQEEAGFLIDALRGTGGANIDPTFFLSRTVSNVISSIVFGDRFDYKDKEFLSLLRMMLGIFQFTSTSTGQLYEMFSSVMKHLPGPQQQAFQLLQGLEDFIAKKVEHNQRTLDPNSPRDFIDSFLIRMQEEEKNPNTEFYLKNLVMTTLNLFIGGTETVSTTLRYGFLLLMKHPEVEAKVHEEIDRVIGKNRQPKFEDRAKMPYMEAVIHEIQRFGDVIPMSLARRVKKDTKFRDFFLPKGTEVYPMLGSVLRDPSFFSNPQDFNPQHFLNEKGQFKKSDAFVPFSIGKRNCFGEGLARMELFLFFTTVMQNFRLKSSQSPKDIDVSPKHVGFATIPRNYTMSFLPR
Experimental: as §1
(§4) A pilot inhibitory analysis of each CYP isoform was performed to determine the potency of inhibition and to select CYP isoforms for further detailed study of their inhibitory activities. […] The substrates comprising phenacetin, coumarin, tolbutamide, metoprolol, chlorzoxazone, S-mephenytoin, and midazolam were employed at concentrations of 10, 5, 100, 7.5, 40, 100, and 5 µM, respectively. All incubation conditions were the same as those described above.
as §3

[5] = target: T4, CYP2C9 (Homo sapiens, UniProt P11712); experiment: Inhibition of tolbutamide 4-hydroxylation in HLMs; type: in vitro ADME
T4 construct: tissue Cypex Ltd. (UK); host or cells: pooled human liver microsomes, ten donors
T4 sequence (P11712 whole entry): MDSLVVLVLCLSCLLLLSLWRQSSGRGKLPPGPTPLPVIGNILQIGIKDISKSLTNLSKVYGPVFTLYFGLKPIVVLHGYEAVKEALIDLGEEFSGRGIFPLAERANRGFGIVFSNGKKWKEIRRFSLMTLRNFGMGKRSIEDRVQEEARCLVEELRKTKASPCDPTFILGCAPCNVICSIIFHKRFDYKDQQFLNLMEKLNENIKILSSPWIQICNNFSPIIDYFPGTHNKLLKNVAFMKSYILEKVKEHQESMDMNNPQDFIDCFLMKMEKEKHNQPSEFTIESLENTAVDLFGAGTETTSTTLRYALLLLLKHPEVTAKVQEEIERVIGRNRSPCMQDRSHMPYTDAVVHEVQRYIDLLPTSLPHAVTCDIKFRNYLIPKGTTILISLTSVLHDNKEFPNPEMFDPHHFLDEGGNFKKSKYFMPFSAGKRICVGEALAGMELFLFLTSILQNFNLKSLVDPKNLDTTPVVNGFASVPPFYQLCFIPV
Experimental: as §1, §4, §3

[6] = target: T5, CYP2D6 (Homo sapiens, UniProt P10635); experiment: Inhibition of metoprolol α-hydroxylation in HLMs; type: in vitro ADME
T5 construct: tissue Cypex Ltd. (UK); host or cells: pooled human liver microsomes, ten donors
T5 sequence (P10635 whole entry): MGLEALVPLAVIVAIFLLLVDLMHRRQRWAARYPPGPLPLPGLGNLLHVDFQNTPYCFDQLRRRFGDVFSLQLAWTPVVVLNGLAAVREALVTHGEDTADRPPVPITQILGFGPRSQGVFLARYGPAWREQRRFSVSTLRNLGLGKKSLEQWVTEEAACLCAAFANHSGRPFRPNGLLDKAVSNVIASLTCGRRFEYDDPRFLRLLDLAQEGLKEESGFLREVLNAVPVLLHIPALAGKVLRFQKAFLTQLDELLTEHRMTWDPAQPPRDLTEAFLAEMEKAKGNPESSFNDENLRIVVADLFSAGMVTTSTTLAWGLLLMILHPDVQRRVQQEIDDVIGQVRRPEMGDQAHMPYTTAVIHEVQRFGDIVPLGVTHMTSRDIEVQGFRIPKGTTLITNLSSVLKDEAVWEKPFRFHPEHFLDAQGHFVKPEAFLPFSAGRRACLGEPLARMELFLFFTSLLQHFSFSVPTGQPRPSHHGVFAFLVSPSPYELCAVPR
Experimental: as §1, §4, §3

[7] = target: T1, CYP2E1; experiment: Inhibition of chlorzoxazone 6-hydroxylation in HLMs; type: in vitro ADME
Experimental: as §1, §4, §3

[8] = target: T6, CYP2C19 (Homo sapiens, UniProt P33261); experiment: Inhibition of S-mephenytoin 4-hydroxylation in HLMs; type: in vitro ADME
T6 construct: tissue Cypex Ltd. (UK); host or cells: pooled human liver microsomes, ten donors
T6 sequence (P33261 whole entry): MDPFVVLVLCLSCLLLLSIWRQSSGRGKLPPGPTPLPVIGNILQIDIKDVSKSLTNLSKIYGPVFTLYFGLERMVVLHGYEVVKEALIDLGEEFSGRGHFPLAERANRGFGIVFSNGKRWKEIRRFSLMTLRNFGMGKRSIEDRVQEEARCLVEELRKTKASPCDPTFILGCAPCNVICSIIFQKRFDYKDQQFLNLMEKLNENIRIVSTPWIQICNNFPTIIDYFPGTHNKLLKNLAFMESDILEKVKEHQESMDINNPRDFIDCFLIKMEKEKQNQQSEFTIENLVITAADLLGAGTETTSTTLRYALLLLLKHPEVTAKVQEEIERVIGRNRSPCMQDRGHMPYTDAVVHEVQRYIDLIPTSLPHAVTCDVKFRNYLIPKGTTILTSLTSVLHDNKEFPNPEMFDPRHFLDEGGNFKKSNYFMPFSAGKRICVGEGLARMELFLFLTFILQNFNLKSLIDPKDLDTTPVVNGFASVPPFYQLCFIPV
Experimental: as §1, §4, §3

[9] = Effects of specific CYP inhibitors on metabolic clearance rate (MCR) of STS in HLMs; type: in vitro ADME, human; settings: STS 10 µM, in the presence of KET 1 µM
[10] = target: T2, CYP3A4; experiment: MCR of STS with recombinant CYP3A4 under inhibition by KET; type: in vitro ADME; settings: KET 1 µM
[11] = rats, cited from earlier work
[12] = rats, intravenous 2 mg/kg, cited from earlier work
[13] = target: T7, CYP1A2 (Homo sapiens, UniProt P05177); settings: in vivo; cited from earlier work
T7 sequence (P05177 1-516): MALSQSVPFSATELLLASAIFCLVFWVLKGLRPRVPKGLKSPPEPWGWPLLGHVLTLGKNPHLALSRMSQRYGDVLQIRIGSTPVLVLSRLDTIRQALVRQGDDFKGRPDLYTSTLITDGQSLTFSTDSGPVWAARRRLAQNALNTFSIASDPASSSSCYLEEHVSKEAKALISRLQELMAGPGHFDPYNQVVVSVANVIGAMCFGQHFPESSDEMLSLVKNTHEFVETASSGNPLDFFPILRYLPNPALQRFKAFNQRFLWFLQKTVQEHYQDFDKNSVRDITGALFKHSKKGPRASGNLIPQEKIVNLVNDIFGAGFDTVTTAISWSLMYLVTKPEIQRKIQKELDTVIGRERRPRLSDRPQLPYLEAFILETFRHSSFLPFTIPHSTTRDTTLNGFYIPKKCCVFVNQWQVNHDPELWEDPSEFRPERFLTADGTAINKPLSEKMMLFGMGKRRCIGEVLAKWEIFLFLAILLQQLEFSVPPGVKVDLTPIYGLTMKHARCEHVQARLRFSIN

[14] = target: T7, CYP1A2; experiment: Inhibition of phenacetin O-deethylation in HLMs; type: in vitro ADME; design: tissue Cypex Ltd. (UK); host or cells: pooled human liver microsomes, ten donors
Experimental: as §1, §4, §3

[15] = target: T2, CYP3A4; experiment: Inhibition of midazolam 1-hydroxylation in HLMs (IC50, Ki, Dixon plots); type: in vitro ADME; design: tissue Cypex Ltd. (UK); host or cells: pooled human liver microsomes, ten donors
Experimental: as §1, §4
Therefore, Dixon plots for the inhibition of CYP3A4 were determined by incubating the substrate probe at multiple concentrations with or without the test inhibitor at multiple concentrations with the HLMs and cofactors. The inhibition data obtained from the pilot experiments were used as a guide to generate appropriate probe substrate and test inhibitor concentrations for determination of the Ki values for each CYP isoform. The isoform-specific probe substrate concentrations used were 5–50 µM midazolam for CYP3A4.
as §2

[16] = test system: human CYP1A2 isoform; settings: specific human CYP1A2 isoform, competitive ref 32; cited from earlier work
[17] = target: T4, CYP2C9; settings: cited from earlier work
[18] = target: T7, CYP1A2; design: tissue Cypex Ltd. (UK); host or cells: pooled human liver microsomes, ten donors; settings: CYP1A2, pooled HLMs, competitive ref 32; cited from earlier work
[19] = classification of Kong et al., read-out: potency class of inhibitor by IC50

SMILES: Cc1ncsc1CCCl [CHL, chlormethiazole hydrochloride]
- Ki [1]: 12 µM

SMILES: Cc1c(S(=O)(=O)O)oc2c1C(=O)C(=O)c1c-2ccc2c1CCCC2(C)C [STS, sodium tanshinone IIA sulfonate]
- Vmax ([2]; Fig. 2a, human liver microsomes): 0.9
- Vmax ([2]; STS metabolism, HLMs 0.5 mg/mL, mean ± SD): 0.9 ± 0.1 nmol/mg protein/min
- Km ([2]; human, human liver microsomes, pH 7.4): 54.8 ± 14.6 µM
- microsomal CLint ([2]; human, human liver microsomes, pH 7.4, read-out: in vitro CLint): 16 µL/min/mg
- Vmax ([3]; Fig. 2b, CYP3A4, printed in picture): 6.8
- in vitro CLint ([3]; STS with CYP3A4, Vmax/Km): 0.902 mL/nmol P450/min
- inhibitory effect on CYP2A6 activity ([4]; STS 1–100 µM, HLMs): minimal; also recorded: negligible
- IC50 ([4]; STS 1–100 µM, coumarin 5 µM, HLMs, read-out: IC50): > 100 µM
- IC50 [4, 19]: ≥ 50 µM
- inhibitory effect on CYP2C9 activity ([5]; STS 1–100 µM, HLMs): minimal; also recorded: negligible
- IC50 ([5]; STS 1–100 µM, tolbutamide 100 µM, HLMs, read-out: IC50): > 100 µM
- IC50 [5, 19]: ≥ 50 µM
- inhibitory effect on CYP2D6 activity ([6]; STS 1–100 µM, HLMs): minimal; also recorded: negligible
- IC50 ([6]; STS 1–100 µM, metoprolol […], HLMs, read-out: IC50): > 100 µM
- IC50 [6, 19]: ≥ 50 µM
- inhibitory effect on CYP2E1 activity ([7]; STS 1–100 µM, HLMs): minimal; also recorded: negligible
- IC50 ([7]; STS 1–100 µM, chlorzoxazone 40 µM, HLMs, read-out: IC50): > 100 µM
- IC50 [7, 19]: ≥ 50 µM
- inhibitory effect on CYP2C19 activity ([8]; STS 1–100 µM, HLMs): minimal; also recorded: negligible
- IC50 ([8]; STS 1–100 µM, S-mephenytoin 100 µM, HLMs, read-out: IC50): > 100 µM
- IC50 [8, 19]: ≥ 50 µM
- MCR of STS, of control [9]: 37.4%
- MCR of STS, of control value ([10]; recombinant CYP3A4, STS 10 µM): 58.4%
- MCR of STS, of control value ([10]; recombinant CYP3A4, STS 50 µM): 29.4%
- plasma concentration ([11]; 4 h after the injection ref 15, 16): ≤ 20 ng/mL
- t1/2 ([11]; after injection ref 15, 16): < 54 min
- maximal STS concentration in liver ([12]; 5 min after administration ref 15, 16): > 10 µg/mL
- detection in other tissues ([12]; 2 h after administration, other tissues ref 15, 16): hardly detected
- time after administration at which STS could be determined ([12]; kidney ref 15, 16): 4 h
- time after administration at which STS could be determined ([12]; liver ref 15, 16): 12 h
- increase of CYP1A2 activity [13]: 41.1%
- inhibitory effect on CYP1A2 activity ([14]; STS 1–100 µM, HLMs): minimal; also recorded: negligible; also recorded: not an inhibitor
- IC50 ([14]; STS 1–100 µM, phenacetin 10 µM, HLMs, read-out: IC50): > 100 µM
- IC50 [14, 19]: ≥ 50 µM
- Ki fold higher than that of KET ([15]; HLMs, versus reported KET value): approximately 212 fold
- IC50 ([15]; STS 1–100 µM, midazolam 5 µM, HLMs, brackets = 95 % confidence interval, read-out: IC50): 6.4 µM and 6.38 µM
- IC50 [15, 19]: ≤ 10 µM
- type of inhibition ([15]; midazolam 1-hydroxylation in HLMs, Dixon / Lineweaver–Burk plots): competitive type of inhibition; also recorded: full competitive inhibition
- IC50 fold higher than that of KET ([15]; midazolam 1-hydroxylation, HLMs, versus reported KET values): 26.6–79.7 fold
- Ki ([15]; midazolam 5–50 µM, STS 0–100 µM, HLMs, competitive model, brackets = 95 % confidence interval): 3.18 µM

SMILES: Cc1coc2c1C(=O)C(=O)c1c-2ccc2c1CCCC2(C)C [tanshinone IIA]
- Ki [16]: 0.05 µM
- inhibition of CYP2C9 [17]: medium competitive inhibitor
- Ki [18]: 1.45 µM
